Experimental data reported in ChEMBL document CHEMBL1201862, “PubChem BioAssay data set” (2004).
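Protocol summary: plate cells (96-well), add compound at 5 concentrations, incubate 48 h, interpolate endpoints linearly. GI50 marks 50% less growth.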 Calls of active or inactive are those of the source. No stated cut-off is given here; in the data, active = GI50 up to about 1.1 µM and inactive = higher.

Columns and labels:
Assay in all cases: DTP human tumour cell line panel, 48 h
LOX IMVI = system: LOX IMVI
U-251 = system: U-251
MDA-MB-435 = system: MDA-MB-435
NCI-H226 = system: NCI-H226
SK-MEL-2 = system: SK-MEL-2
HCC 2998 = system: HCC 2998
CCRF-CEM = system: CCRF-CEM
SF-539 = system: SF-539
SNB-75 = system: SNB-75
HCT-116 = system: HCT-116
MOLT-4 = system: MOLT-4
HOP-92 = system: HOP-92
SNB-19 = system: SNB-19
NCI-H23 = system: NCI-H23
HL-60 = system: HL-60
SK-OV-3 = system: SK-OV-3
SN12C = system: SN12C
ACHN = system: ACHN
MDA-N = system: MDA-N

Measured: GI50

COc1cc(Nc2n[nH]c(NS(=O)(=O)c3cc(C)c(Cl)cc3S)n2)cc(OC)c1OC
inactive: LOX IMVI > 100 µM | U-251 > 100 µM | MDA-MB-435 > 100 µM | NCI-H226 > 100 µM | SK-MEL-2 > 100 µM | HCC 2998 > 100 µM | CCRF-CEM > 100 µM | SF-539 > 100 µM | SNB-75 > 100 µM | HCT-116 > 100 µM | MOLT-4 > 100 µM | HOP-92 > 100 µM | SNB-19 > 100 µM | NCI-H23 > 100 µM | HL-60 > 100 µM | SK-OV-3 > 100 µM | SN12C > 100 µM | ACHN > 100 µM | MDA-N > 100 µM

CCOC(=O)Cn1c(=O)c2nc(SC)sc2n(-c2ccccc2)c1=S
inactive: LOX IMVI 94 µM | U-251 13.4 µM | MDA-MB-435 64.6 µM | NCI-H226 18.4 µM | SK-MEL-2 17.5 µM | HCC 2998 40 µM | CCRF-CEM > 100 µM | SF-539 15.6 µM | SNB-75 4.1 µM | HCT-116 27.5 µM | MOLT-4 > 100 µM | HOP-92 4.8 µM | SNB-19 13.4 µM | NCI-H23 36.5 µM | HL-60 32.3 µM | SK-OV-3 22.7 µM | SN12C 35.9 µM | ACHN 13.9 µM | MDA-N 40.8 µM

NC1=Nc2cc(C(F)(F)F)ccc2Sc2nc3ccccc3n21
inactive: LOX IMVI 4.85 µM | U-251 5.56 µM | MDA-MB-435 > 100 µM | NCI-H226 12.1 µM | SK-MEL-2 55.8 µM | HCC 2998 > 94.8 µM | CCRF-CEM 2.64 µM | SF-539 > 46.5 µM | SNB-75 19.9 µM | HCT-116 3.73 µM | MOLT-4 4.24 µM | HOP-92 7.6 µM | SNB-19 15.6 µM | NCI-H23 31.3 µM | HL-60 3.15 µM | SK-OV-3 37.5 µM | SN12C 57.5 µM | ACHN > 78.9 µM | MDA-N 5.53 µM

Cc1ccccc1C(=O)N/N=C/c1ccc(Sc2nccn2C)c([N+](=O)[O-])c1
inactive: LOX IMVI 50.8 µM | U-251 85.1 µM | MDA-MB-435 25.9 µM | NCI-H226 > 100 µM | SK-MEL-2 68.7 µM | HCC 2998 45.3 µM | CCRF-CEM 36.5 µM | SF-539 > 100 µM | SNB-75 63.2 µM | HCT-116 84.3 µM | MOLT-4 54.6 µM | HOP-92 14.3 µM | SNB-19 > 100 µM | NCI-H23 > 100 µM | HL-60 44.3 µM | SK-OV-3 > 100 µM | SN12C > 100 µM | ACHN > 100 µM | MDA-N 32.7 µM
